Where a name gives a salt, the structure may show the parent alone.
tested on: Human platelet aggregation caused by ADP; assay: Inhibition of ADP-induced platelet aggregation (Mimic-human PRP); format: cell-based; settings: 20 μM ADP, human platelet concentrate diluted with PPP, absorption at 595 nm
How it was run: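 Ki came from non-linear sigmoidal fits of inhibition, measured as the 3-min rise in absorbance at 595 nm after 20 μM ADP, relative to 0/20 μM ADP controls. Platelets (3–4×10^8/mL in PPP-diluted human PRP) were exposed to 0.01–30 μM compound for 20 min at room temperature beforehand.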

SMILES | Ki
CCCc1cc2c(N3CCn4c(nnc4C(F)(F)F)C3)nc(OCCNC(=O)C(C)(CO)CO)nc2s1 [Example 7-34, 3-Hydroxy-2-hydroxymethyl-2-methyl-N-{2-[6-propyl-4-(3-trifluoromethyl-5,6-dihydro-8H-[1,2,4]triazolo[4,3-a]pyrazin-7-yl)-thieno[2,3-d]pyrimidin-2-yloxy]-ethyl}-propionamide] | 16 nM
CCCc1cc2c(N3CCn4c(nnc4C(F)(F)F)C3)nc(OCCNC(=O)C(C)(C)CO)nc2s1 [Example 7-35, 3-Hydroxy-2,2-dimethyl-N-{2-[6-propyl-4-(3-trifluoromethyl-5,6-dihydro-8H-[1,2,4]triazolo[4,3-a]pyrazin-7-yl)-thieno[2,3-d]pyrimidin-2-yloxy]-ethyl}-propionamide] | 10 nM
CCCc1cc2c(N3CCn4c(nnc4C(F)(F)F)C3)nc(OC[C@H]3CCCN3)nc2s1 [Example 7-36, Hydrochloric acid salt of 7-[6-Propyl-2-((R)-1-pyrrolidin-2-ylmethoxy)-thieno[2,3-d]pyrimidin-4-yl]-3-trifluoromethyl-5,6,7,8-tetrahydro-[1,2,4]triazolo[4,3-a]pyrazine] | 100 nM
CCCc1cc2c(N3CCn4c(nnc4C(F)(F)F)C3)nc(OC[C@@H]3CCCN3)nc2s1 [Example 7-37, Hydrochloric acid salt of 7-[6-Propyl-2-((S)-1-pyrrolidin-2-ylmethoxy)-thieno[2,3-d]pyrimidin-4-yl]-3-trifluoromethyl-5,6,7,8-tetrahydro-[1,2,4]triazolo[4,3-a]pyrazine] | 280 nM
CCCc1cc2c(N3CCn4c(nnc4C(F)(F)F)C3)nc(NCCN)nc2s1 [Example 7-38, Hydrochloric acid salt of N-1-[6-Propyl-4-(3-trifluoromethyl-5,6-dihydro-8H-[1,2,4]triazolo[4,3-a]pyrazin-7-yl)-thieno[2,3-d]pyrimidin-2-yl]-ethane-1,2-diamine] | 50 nM
CCCc1cc2c(N3CCn4c(nnc4C(F)(F)F)C3)nc(N3CC[C@@H](CNC(C)=O)C3)nc2s1 [Example 8-1, N-{(S)-1-[6-Propyl-4-(3-trifluoromethyl-5,6-dihydro-8H-[1,2,4]triazolo[4,3-a]pyrazin-7-yl)-thieno[2,3-d]pyrimidin-2-yl]-pyrrolidin-3-ylmethyl}-acetamide] | 35 nM
CCCC(=O)NC[C@@H]1CCN(c2nc(N3CCn4c(nnc4C(F)(F)F)C3)c3cc(CCC)sc3n2)C1 [Example 8-2, N-{(S)-1-[6-Propyl-4-(3-trifluoromethyl-5,6-dihydro-8H-[1,2,4]triazolo[4,3-a]pyrazin-7-yl)-thieno[2,3-d]pyrimidin-2-yl]-pyrrolidin-3-ylmethyl}-butyramide] | 110 nM
CCCc1cc2c(N3CCn4c(nnc4C(F)(F)F)C3)nc(N3CC[C@@H](CNC(=O)C(C)C)C3)nc2s1 [Example 8-3, N-{(S)-1-[6-Propyl-4-(3-trifluoromethyl-5,6-dihydro-8H-[1,2,4]triazolo[4,3-a]pyrazin-7-yl)-thieno[2,3-d]pyrimidin-2-yl]-pyrrolidin-3-ylmethyl}-isobutyramide] | 330 nM
CCCc1cc2c(N3CCn4c(nnc4C(F)(F)F)C3)nc(N3CC[C@H](CNC(C)=O)C3)nc2s1 [Example 8-4, N-{(R)-1-[6-Propyl-4-(3-trifluoromethyl-5,6-dihydro-8H-[1,2,4]triazolo[4,3-a]pyrazin-7-yl)-thieno[2,3-d]pyrimidin-2-yl]-pyrrolidin-3-ylmethyl}-acetamide] | 14 nM
CCCc1cc2c(N3CCn4c(nnc4C(F)(F)F)C3)nc(N3CC[C@H](CNC(=O)C(C)C)C3)nc2s1 [Example 8-6, N-{(R)-1-[6-Propyl-4-(3-trifluoromethyl-5,6-dihydro-8H-[1,2,4]triazolo[4,3-a]pyrazin-7-yl)-thieno[2,3-d]pyrimidin-2-yl]-pyrrolidin-3-ylmethyl}-isobutyramide] | 120 nM
CCCc1cc2c(N3CCn4c(nnc4C(F)(F)F)C3)nc(NCCNC(C)=O)nc2s1 [Example 8-7, N-{2-[6-Propyl-4-(3-trifluoromethyl-5,6-dihydro-8H-[1,2,4]triazolo[4,3-a]pyrazin-7-yl)-thieno[2,3-d]pyrimidin-2-ylamino]-ethyl}-acetamide] | 32 nM
CCCC(=O)NCCNc1nc(N2CCn3c(nnc3C(F)(F)F)C2)c2cc(CCC)sc2n1 [Example 8-8, N-{2-[6-Propyl-4-(3-trifluoromethyl-5,6-dihydro-8H-[1,2,4]triazolo[4,3-a]pyrazin-7-yl)-thieno[2,3-d]pyrimidin-2-ylamino]-ethyl}-butyramide] | 85 nM
CCCc1cc2c(N3CCn4c(nnc4C(F)(F)F)C3)nc(NCCNC(=O)C(C)C)nc2s1 [Example 8-9, N-{2-[6-Propyl-4-(3-trifluoromethyl-5,6-dihydro-8H-[1,2,4]triazolo[4,3-a]pyrazin-7-yl)-thieno[2,3-d]pyrimidin-2-ylamino]-ethyl}-isobutyramide] | 150 nM
CCCc1cc2c(N3CCn4c(nnc4C(F)(F)F)C3)nc(NC3CN(C(C)=O)C3)nc2s1 [Example 8-10, 1-{3-[6-Propyl-4-(3-trifluoromethyl-5,6-dihydro-8H-[1,2,4]triazolo[4,3-a]pyrazin-7-yl)-thieno[2,3-d]pyrimidin-2-ylamino]-azetidin-1-yl}-ethanone] | 110 nM
CCCc1cc2c(N3CCn4c(nnc4C(F)(F)F)C3)nc(N[C@H]3CCN(C(C)=O)C3)nc2s1 [Example 8-13, 1-{(S)-3-[6-Propyl-4-(3-trifluoromethyl-5,6-dihydro-8H-[1,2,4]triazolo[4,3-a]pyrazin-7-yl)-thieno[2,3-d]pyrimidin-2-ylamino]-pyrrolidin-1-yl}-ethanone] | 3 nM
CCCC(=O)N1CC[C@H](Nc2nc(N3CCn4c(nnc4C(F)(F)F)C3)c3cc(CCC)sc3n2)C1 [Example 8-14, 1-{(S)-3-[6-Propyl-4-(3-trifluoromethyl-5,6-dihydro-8H-[1,2,4]triazolo[4,3-a]pyrazin-7-yl)-thieno[2,3-d]pyrimidin-2-ylamino]-pyrrolidin-1-yl}-butan-1-one] | 3 nM
CCCc1cc2c(N3CCn4c(nnc4C(F)(F)F)C3)nc(N[C@H]3CCN(C(=O)C(C)C)C3)nc2s1 [Example 8-15, 2-Methyl-1-{(S)-3-[6-propyl-4-(3-trifluoromethyl-5,6-dihydro-8H-[1,2,4]triazolo[4,3-a]pyrazin-7-yl)-thieno[2,3-d]pyrimidin-2-ylamino]-pyrrolidin-1-yl}-propan-1-one] | 7 nM
CCCc1cc2c(N3CCn4c(nnc4C(F)(F)F)C3)nc(N[C@@H]3CCN(C(C)=O)C3)nc2s1 [Example 8-16, 1-{(R)-3-[6-Propyl-4-(3-trifluoromethyl-5,6-dihydro-8H-[1,2,4]triazolo[4,3-a]pyrazin-7-yl)-thieno[2,3-d]pyrimidin-2-ylamino]-pyrrolidin-1-yl}-ethanone] | 35 nM
CCCC(=O)N1CC[C@@H](Nc2nc(N3CCn4c(nnc4C(F)(F)F)C3)c3cc(CCC)sc3n2)C1 [Example 8-17, 1-{(R)-3-[6-Propyl-4-(3-trifluoromethyl-5,6-dihydro-8H-[1,2,4]triazolo[4,3-a]pyrazin-7-yl)-thieno[2,3-d]pyrimidin-2-ylamino]-pyrrolidin-1-yl}-butan-1-one] | 35 nM
CCCc1cc2c(N3CCn4c(nnc4C(F)(F)F)C3)nc(N[C@@H]3CCN(C(=O)C(C)C)C3)nc2s1 [Example 8-18, 2-Methyl-1-{(R)-3-[6-propyl-4-(3-trifluoromethyl-5,6-dihydro-8H-[1,2,4]triazolo[4,3-a]pyrazin-7-yl)-thieno[2,3-d]pyrimidin-2-ylamino]-pyrrolidin-1-yl}-propan-1-one] | 41 nM
CCCc1cc2c(N3CCn4c(nnc4C(F)(F)F)C3)nc(NC[C@@H]3CCN(C(C)=O)C3)nc2s1 [Example 8-19, 1-((S)-3-{[6-Propyl-4-(3-trifluoromethyl-5,6-dihydro-8H-[1,2,4]triazolo[4,3-a]pyrazin-7-yl)-thieno[2,3-d]pyrimidin-2-ylamino]-methyl}-pyrrolidin-1-yl)-ethanone] | 150 nM
CCCC(=O)N1CC[C@@H](CNc2nc(N3CCn4c(nnc4C(F)(F)F)C3)c3cc(CCC)sc3n2)C1 [Example 8-20, 1-((S)-3-{[6-Propyl-4-(3-trifluoromethyl-5,6-dihydro-8H-[1,2,4]triazolo[4,3-a]pyrazin-7-yl)-thieno[2,3-d]pyrimidin-2-ylamino]-methyl}-pyrrolidin-1-yl)-butan-1-one] | 410 nM
CCCc1cc2c(N3CCn4c(nnc4C(F)(F)F)C3)nc(NC[C@@H]3CCN(C(=O)C(C)C)C3)nc2s1 [Example 8-21, 2-Methyl-1-((S)-3-{[6-propyl-4-(3-trifluoromethyl-5,6-dihydro-8H-[1,2,4]triazolo[4,3-a]pyrazin-7-yl)-thieno[2,3-d]pyrimidin-2-ylamino]-methyl}-pyrrolidin-1-yl)-propan-1-one] | 270 nM
CCCc1cc2c(N3CCn4c(nnc4C(F)(F)F)C3)nc(NC[C@H]3CCN(C(C)=O)C3)nc2s1 [Example 8-22, 1-((R)-3-{[6-Propyl-4-(3-trifluoromethyl-5,6-dihydro-8H-[1,2,4]triazolo[4,3-a]pyrazin-7-yl)-thieno[2,3-d]pyrimidin-2-ylamino]-methyl}-pyrrolidin-1-yl)-ethanone] | 220 nM
CCCC(=O)N1CC[C@H](CNc2nc(N3CCn4c(nnc4C(F)(F)F)C3)c3cc(CCC)sc3n2)C1 [Example 8-23, 1-((R)-3-{[6-Propyl-4-(3-trifluoromethyl-5,6-dihydro-8H-[1,2,4]triazolo[4,3-a]pyrazin-7-yl)-thieno[2,3-d]pyrimidin-2-ylamino]-methyl}-pyrrolidin-1-yl)-butan-1-one] | 570 nM
CCCc1cc2c(N3CCn4c(nnc4C(F)(F)F)C3)nc(NC[C@H]3CCN(C(=O)C(C)C)C3)nc2s1 [Example 8-24, 2-Methyl-1-((R)-3-{[6-propyl-4-(3-trifluoromethyl-5,6-dihydro-8H-[1,2,4]triazolo[4,3-a]pyrazin-7-yl)-thieno[2,3-d]pyrimidin-2-ylamino]-methyl}-pyrrolidin-1-yl)-propan-1-one] | 1400 nM

Source: US20110166121A1 (LG LIFE SCIENCES LTD., priority 2008, published 2011)
